For 18 compounds, IC50 results are on record in US20230151003A1, “COMPOUNDS AND METHODS OF USE” (Exelixis, Inc., priority 2020, published 2023).

One test concerns the target Met (Homo sapiens, UniProt P08581). The test is described as follows: Met autophosphorylation ELISA in PC-3 cells. The class given is cell-based. The arrangement: endogenous in cells; host or cells: PC-3 prostate cancer cells (ATCC #CRL-1435). The conditions noted are these: Table 3 Cellular Activities, HGF-stimulated, phospho-Met ELISA, read-out: c-Met IC50. The method in brief:
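Serum-starved (3 h) PC-3 cells pre-incubated 1 h with compound (8-point dose curve, 0.3% DMSO), then stimulated with 100 ng/mL recombinant human HGF for 10 min. Lysate phospho-Met (panTyr) measured by sandwich ELISA; IC50 from 4-parameter logistic fit, normalised to DMSO (100%) and reference-inhibitor (0%) controls.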

For the next test, the target named is T1, Mer (Homo sapiens, UniProt Q12866).
T1 construct: host or cells: 293A cells (Thermo Fisher #R70507)
T1 sequence (Q12866 21-999): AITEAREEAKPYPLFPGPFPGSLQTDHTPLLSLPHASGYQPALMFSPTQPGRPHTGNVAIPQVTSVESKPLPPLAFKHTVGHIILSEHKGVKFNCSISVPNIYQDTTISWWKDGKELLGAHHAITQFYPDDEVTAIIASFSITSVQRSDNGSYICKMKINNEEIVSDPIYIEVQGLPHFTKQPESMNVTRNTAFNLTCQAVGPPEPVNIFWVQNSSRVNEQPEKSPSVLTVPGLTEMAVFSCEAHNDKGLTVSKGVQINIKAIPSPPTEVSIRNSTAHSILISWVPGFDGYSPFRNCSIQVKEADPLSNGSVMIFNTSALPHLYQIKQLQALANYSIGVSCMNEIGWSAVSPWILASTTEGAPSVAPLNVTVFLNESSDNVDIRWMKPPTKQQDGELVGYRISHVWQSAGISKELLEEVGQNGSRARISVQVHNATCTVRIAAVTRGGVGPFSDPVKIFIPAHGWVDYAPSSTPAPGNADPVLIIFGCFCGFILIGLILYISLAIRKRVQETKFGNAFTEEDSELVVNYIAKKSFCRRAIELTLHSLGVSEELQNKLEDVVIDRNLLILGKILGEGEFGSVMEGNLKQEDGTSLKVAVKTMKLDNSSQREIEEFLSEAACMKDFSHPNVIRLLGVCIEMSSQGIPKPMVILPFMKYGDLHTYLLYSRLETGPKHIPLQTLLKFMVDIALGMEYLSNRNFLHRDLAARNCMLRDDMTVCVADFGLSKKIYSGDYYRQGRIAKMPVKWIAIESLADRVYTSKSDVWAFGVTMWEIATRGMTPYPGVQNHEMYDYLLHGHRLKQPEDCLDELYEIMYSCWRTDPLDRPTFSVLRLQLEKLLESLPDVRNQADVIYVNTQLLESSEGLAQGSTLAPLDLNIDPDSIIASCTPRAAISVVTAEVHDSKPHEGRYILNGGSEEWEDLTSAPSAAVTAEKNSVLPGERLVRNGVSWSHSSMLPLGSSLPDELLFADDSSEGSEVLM
The test is described as follows: Mer autophosphorylation ELISA in transient transfected 293A cells. The class given is cell-based. The conditions noted are these: Table 3 Cellular Activities; MERTK-transfected 293A cells, phospho-Mer ELISA. The method in brief: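 293A cells transiently transfected with human MERTK DNA, replated after 24 h, then treated 1 h with 8-point compound dilutions in serum-free medium (0.3% DMSO). Lysates assayed by phospho-Mer sandwich ELISA against phospho-Mer standard; DMSO = 100%, reference inhibitor = 0% activity; IC50 by 4-parameter logistic fit.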
(In general: An ELISA detects its analyte on a solid surface through an enzyme-linked reagent.)

Chain of Met (P08581 25-1390): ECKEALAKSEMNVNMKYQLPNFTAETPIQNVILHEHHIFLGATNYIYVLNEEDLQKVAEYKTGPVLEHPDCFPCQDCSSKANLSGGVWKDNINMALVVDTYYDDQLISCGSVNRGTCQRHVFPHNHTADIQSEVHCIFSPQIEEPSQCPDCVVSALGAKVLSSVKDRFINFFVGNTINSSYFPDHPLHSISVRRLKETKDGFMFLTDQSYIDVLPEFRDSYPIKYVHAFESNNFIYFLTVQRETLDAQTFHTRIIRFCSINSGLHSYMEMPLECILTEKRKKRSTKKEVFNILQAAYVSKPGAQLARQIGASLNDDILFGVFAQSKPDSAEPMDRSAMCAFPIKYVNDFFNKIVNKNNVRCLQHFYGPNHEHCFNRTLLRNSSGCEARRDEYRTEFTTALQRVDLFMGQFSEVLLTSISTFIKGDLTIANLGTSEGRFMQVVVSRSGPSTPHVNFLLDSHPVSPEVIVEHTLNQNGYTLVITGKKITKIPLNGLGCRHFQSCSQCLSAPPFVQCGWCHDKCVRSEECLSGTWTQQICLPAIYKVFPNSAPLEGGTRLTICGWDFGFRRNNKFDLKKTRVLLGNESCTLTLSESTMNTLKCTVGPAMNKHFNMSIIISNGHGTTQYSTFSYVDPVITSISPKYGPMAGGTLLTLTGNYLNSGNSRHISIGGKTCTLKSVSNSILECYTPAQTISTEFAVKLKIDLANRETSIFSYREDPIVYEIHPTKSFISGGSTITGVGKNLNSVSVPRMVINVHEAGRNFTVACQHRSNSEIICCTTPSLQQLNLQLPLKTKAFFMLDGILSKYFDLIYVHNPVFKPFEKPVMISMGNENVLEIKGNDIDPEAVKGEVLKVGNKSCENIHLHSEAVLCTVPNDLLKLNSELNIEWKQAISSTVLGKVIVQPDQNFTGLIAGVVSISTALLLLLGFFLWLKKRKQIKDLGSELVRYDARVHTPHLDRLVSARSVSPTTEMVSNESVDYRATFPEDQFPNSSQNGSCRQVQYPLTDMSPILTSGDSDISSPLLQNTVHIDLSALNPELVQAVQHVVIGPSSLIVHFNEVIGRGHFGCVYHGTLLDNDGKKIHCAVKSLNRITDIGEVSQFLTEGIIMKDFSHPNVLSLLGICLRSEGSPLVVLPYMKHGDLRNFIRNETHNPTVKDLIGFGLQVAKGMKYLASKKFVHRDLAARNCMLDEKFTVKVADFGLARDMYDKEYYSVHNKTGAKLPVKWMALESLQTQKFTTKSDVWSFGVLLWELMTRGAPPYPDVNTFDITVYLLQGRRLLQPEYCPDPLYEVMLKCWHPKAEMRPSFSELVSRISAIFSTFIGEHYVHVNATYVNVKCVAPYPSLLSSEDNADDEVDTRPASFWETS

Turning to `COc1cnc2c(Oc3ccc(NC(=O)c4c(C)n(C)cc(-c5ccc(F)cn5)c4=O)cc3F)ccnc2c1` [Compound 73, N-[3-Fluoro-4-[(7-methoxy-1,5-naphthyridin-4-yl)oxy]phenyl]-5-(5-fluoropyridin-2-yl)-1,2-dimethyl-4-oxopyridine-3-carboxamide], the IC50 on Met and against Mer was at most 100 nM each time.
Consider `COc1cc2nccc(Oc3ccc(NC(=O)c4ccc(C)n(-c5ccncc5F)c4=O)cc3F)c2nc1OC` [Compound 220, N-[4-[(6,7-Dimethoxy-1,5-naphthyridin-4-yl)oxy]-3-fluorophenyl]-1-(3-fluoropyridin-4-yl)-6-methyl-2-oxopyridine-3-carboxamide], for which the half-inhibitory concentration (IC50) on Met and at Mer was at most 100 nM in each case.
For `CCOc1ccn(-c2ccc(F)cn2)c(=O)c1C(=O)Nc1ccc(Oc2ccnc3cc(OC)c(OC)nc23)cc1` [Compound 244, N-[4-[(6,7-Dimethoxy-1,5-naphthyridin-4-yl)oxy]phenyl]-4-ethoxy-1-(5-fluoropyridin-2-yl)-2-oxopyridine-3-carboxamide], the IC50 at Met and against Mer was at most 100 nM each time.
With `COc1cc2nccc(Oc3ccc(NC(=O)c4c5n(cc(-c6ccco6)c4=O)CCOC5)cc3)c2nc1OC` [Compound 298, N-[4-[(6,7-Dimethoxy-1,5-naphthyridin-4-yl)oxy]phenyl]-7-(furan-2-yl)-8-oxo-3,4-dihydro-1H-pyrido[2,1-c][1,4]oxazine-9-carboxamide], the half-inhibitory concentration (IC50) on Met was 300 to 1000 nM; on Mer, at most 100 nM.
For `COc1cc2nccc(Oc3ccc(NC(=O)c4c5n(cc(-c6ccco6)c4=O)CCOC5)cc3F)c2nc1OC` [Compound 297, N-[4-[(6,7-Dimethoxy-1,5-naphthyridin-4-yl)oxy]-3-fluorophenyl]-7-(furan-2-yl)-8-oxo-3,4-dihydro-1H-pyrido[2,1-c][1,4]oxazine-9-carboxamide], in that order: at most 100 nM and at most 100 nM.
In the case of `COc1cc2nccc(Oc3ccc(NC(=O)c4c(C)ncc(-c5ccc(F)cn5)c4O)cc3F)c2nc1OC` [Compound 68, N-[4-[(6,7-Dimethoxy-1,5-naphthyridin-4-yl)oxy]-3-fluorophenyl]-5-(5-fluoropyridin-2-yl)-4-hydroxy-2-methylpyridine-3-carboxamide], the half-inhibitory concentration (IC50) at Met and against Mer was at most 100 nM each time.
With `COc1cc2nccc(Oc3ccc(NC(=O)c4ccc(C)n(-c5ccc(F)cn5)c4=O)cc3)c2nc1OC` [Compound 44, N-[4-[(6,7-Dimethoxy-1,5-naphthyridin-4-yl)oxy]phenyl]-1-(5-fluoropyridin-2-yl)-6-methyl-2-oxopyridine-3-carboxamide], the concentration for half-maximal inhibition (IC50) at Met and at Mer was at most 100 nM in each case.
For `COc1cc2nccc(Oc3ccc(NC(=O)c4c5n(cc(-c6cc(C)cs6)c4=O)CCOC5)cc3F)c2nc1OC` [Compound 302, N-[4-[(6,7-Dimethoxy-1,5-naphthyridin-4-yl)oxy]-3-fluorophenyl]-7-(4-methylthiophen-2-yl)-8-oxo-3,4-dihydro-1H-pyrido[2,1-c][1,4]oxazine-9-carboxamide], the half-maximal inhibitory concentration (IC50) on Met and on Mer was at most 100 nM in each case.
Turning to `COc1cc2nccc(Oc3ccc(NC(=O)c4cnc(C)c(-c5cccs5)c4O)cc3)c2nc1OC` [Compound 256, N-[4-[(6,7-Dimethoxy-1,5-naphthyridin-4-yl)oxy]phenyl]-4-hydroxy-6-methyl-5-thiophen-2-ylpyridine-3-carboxamide], the IC50 on Met and at Mer was at most 100 nM throughout.
For `COc1ccc2nccc(Oc3ccc(NC(=O)c4ccc(C)n(-c5ccc(F)cn5)c4=O)cc3F)c2c1` [Compound 49, N-[3-Fluoro-4-(6-methoxyquinolin-4-yl)oxyphenyl]-1-(5-fluoropyridin-2-yl)-6-methyl-2-oxopyridine-3-carboxamide], the half-inhibitory concentration (IC50) on Met and at Mer was at most 100 nM each time.
Take `COCc1nc(C)c(-c2ccc(F)cn2)c(O)c1C(=O)Nc1ccc(Oc2ccnc3cc(OC)c(OC)nc23)c(F)c1` [Compound 214, N-[4-[(6,7-Dimethoxy-1,5-naphthyridin-4-yl)oxy]-3-fluorophenyl]-5-(5-fluoropyridin-2-yl)-4-hydroxy-2-(methoxymethyl)-6-methylpyridine-3-carboxamid]: the half-maximal inhibitory concentration (IC50) at Met and against Mer was at most 100 nM each time.
Turning to `COc1cc2nccc(Oc3ccc(NC(=O)c4c(C)cc(C)n(-c5ccc(F)cn5)c4=O)cc3)c2nc1OC` [Compound 245, N-[4-[(6,7-Dimethoxy-1,5-naphthyridin-4-yl)oxy]phenyl]-1-(5-fluoropyridin-2-yl)-4,6-dimethyl-2-oxopyridine-3-carboxamide], the 50% inhibitory concentration (IC50) at Met and against Mer was at most 100 nM each time.
As to `COc1cnc2c(Oc3ccc(NC(=O)c4c(C)nc(C)c(-c5ccc(F)cn5)c4O)cc3F)ccnc2c1` [Compound 217, N-[3-Fluoro-4-[(7-methoxy-1,5-naphthyridin-4-yl)oxy]phenyl]-5-(5-fluoropyridin-2-yl)-4-hydroxy-2,6-dimethylpyridine-3-carboxamide], the 50% inhibitory concentration (IC50) on Met and against Mer was at most 100 nM in each case.
For `COc1cc2nccc(Oc3ccc(NC(=O)c4ncc(C)n(-c5ccc(F)cn5)c4=O)cc3F)c2nc1OC` [Compound 219, N-[4-[(6,7-Dimethoxy-1,5-naphthyridin-4-yl)oxy]-3-fluorophenyl]-4-(5-fluoropyridin-2-yl)-5-methyl-3-oxopyrazine-2-carboxamide], the IC50 at Met and against Mer was at most 100 nM each time.
Turning to `COc1cc2nccc(Oc3ccc(NC(=O)c4ccc(C)n(-c5ccnc(O)c5)c4=O)cc3F)c2nc1OC` [Compound 232, N-[4-[(6,7-Dimethoxy-1,5-naphthyridin-4-yl)oxy]-3-fluorophenyl]-1-(2-hydroxypyridin-4-yl)-6-methyl-2-oxopyridine-3-carboxamide], the IC50 on Met and at Mer was at most 100 nM each time.
On to `CCOc1ccn(-c2ccc(F)cn2)c(=O)c1C(=O)Nc1ccc(Oc2ccnc3cc(OC)c(OC)nc23)c(F)c1` [Compound 243, N-[4-[(6,7-dimethoxy-1,5-naphthyridin-4-yl)oxy]-3-fluorophenyl]-4-ethoxy-1-(5-fluoropyridin-2-yl)-2-oxopyridine-3-carboxamide], for which the half-inhibitory concentration (IC50) on Met and against Mer was at most 100 nM each time.
As for `COCCOc1cc2nccc(Oc3ccc(NC(=O)c4ccc(C)n(-c5ccc(F)cn5)c4=O)cc3F)c2nc1OC` [Compound 50, N-[3-Fluoro-4-[[6-methoxy-7-(2-methoxyethoxy)-1,5-naphthyridin-4-yl]oxy]phenyl]-1-(5-fluoropyridin-2-yl)-6-methyl-2-oxopyridine-3-carboxamide], the concentration for half-maximal inhibition (IC50) at Met and against Mer was at most 100 nM each time.
As for `COc1cc2nccc(Oc3ccc(NC(=O)c4cc(C(C)=O)c(C)n(-c5ccc(F)cn5)c4=O)cc3F)c2nc1OC` [Compound 59, 5-Acetyl-N-[4-[(6,7-dimethoxy-1,5-naphthyridin-4-yl)oxy]-3-fluorophenyl]-1-(5-fluoropyridin-2-yl)-6-methyl-2-oxopyridine-3-carboxamide], the half-inhibitory concentration (IC50) at Met and against Mer was at most 100 nM throughout.

Broadly, the IC50 is the midpoint of a concentration-inhibition curve.
